Test results reported in PubChem BioAssay AID2060627 (Molecular Pharmacology Branch, DTP, NCI, 2025).
“And” between values parts separate entries of the source, which are not always exact repeats. Equal values may be shown once.

Tested on: 156681-154-R-J1-PDC complex spheroid viability
Test: Anticancer human tumor 156681-154-R-J1-PDC patient-derived melanoma cell line growth inhibition [CLK]
Settings: for viability, T/C: stronger effect = lower value
Outline: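 Patient-derived tumor cells grown as complex spheroids with HUVEC endothelial cells and mesenchymal stem cells, treated with drug combinations. Concentrations descend in half-log steps from near clinical Cmax, or from 10 microM if Cmax unknown.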

[1] = curve of first compound, second compound 0.0316 µM
[2] = curve of first compound, second compound 0.1 µM
[3] = curve of first compound, second compound 0.316 µM
[4] = curve of first compound, second compound 1 µM
[5] = curve of first compound, second compound 3.16 µM
[6] = curve of first compound, second compound 10 µM
[7] = second compound 0.0316 µM, first compound 0.0316 µM
[8] = second compound 0.0316 µM, first compound 0.1 µM
[9] = second compound 0.0316 µM, first compound 0.316 µM
[10] = second compound 0.0316 µM, first compound 1 µM
[11] = second compound 0.0316 µM, first compound 3.16 µM
[12] = second compound 0.0316 µM, first compound 10 µM
[13] = second compound 0.1 µM, first compound 0.0316 µM
[14] = second compound 0.1 µM, first compound 0.1 µM
[15] = second compound 0.1 µM, first compound 0.316 µM
[16] = second compound 0.1 µM, first compound 1 µM
[17] = second compound 0.1 µM, first compound 3.16 µM
[18] = second compound 0.1 µM, first compound 10 µM
[19] = second compound 0.316 µM, first compound 0.0316 µM
[20] = second compound 0.316 µM, first compound 0.1 µM
[21] = second compound 0.316 µM, first compound 0.316 µM
[22] = second compound 0.316 µM, first compound 1 µM
[23] = second compound 0.316 µM, first compound 3.16 µM
[24] = second compound 0.316 µM, first compound 10 µM
[25] = second compound 1 µM, first compound 0.0316 µM
[26] = second compound 1 µM, first compound 0.1 µM
[27] = second compound 1 µM, first compound 0.316 µM
[28] = second compound 1 µM, first compound 1 µM
[29] = second compound 1 µM, first compound 3.16 µM
[30] = second compound 1 µM, first compound 10 µM
[31] = second compound 3.16 µM, first compound 0.0316 µM
[32] = second compound 3.16 µM, first compound 0.1 µM
[33] = second compound 3.16 µM, first compound 0.316 µM
[34] = second compound 3.16 µM, first compound 1 µM
[35] = second compound 3.16 µM, first compound 3.16 µM
[36] = second compound 3.16 µM, first compound 10 µM
[37] = second compound 10 µM, first compound 0.0316 µM
[38] = second compound 10 µM, first compound 0.1 µM
[39] = second compound 10 µM, first compound 0.316 µM
[40] = second compound 10 µM, first compound 1 µM
[41] = second compound 10 µM, first compound 3.16 µM
[42] = second compound 10 µM, first compound 10 µM
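Further: spheroids exposed to the agents for seven days.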
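Wherever viability, T/C is given: 100% = DMSO vehicle control viability.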

Nc1ccccc1NC(=O)c1ccc(CNC(=O)OCc2cccnc2)cc1 + CNC(=O)c1ccc(Nc2nc(OC3CCCC3)c3c(-c4ccc5nc(C)oc5c4)c[nH]c3n2)c(OC)c1
IC50 [1]: 572 nM | IC50 [2]: 293 nM | IC50 [3]: 337 nM | IC50 [4]: 141 nM | IC50 [5]: 67.6 nM | IC50 [6]: 50.7 nM | viability, T/C [7]: 115% | viability, T/C [8]: 91.2% | viability, T/C [9]: 64.9% | viability, T/C [10]: 42% | viability, T/C [11]: 3.29% | viability, T/C [12]: 1.7% | viability, T/C [13]: 70% | viability, T/C [14]: 66.3% | viability, T/C [15]: 45.7% | viability, T/C [16]: 30.2% | viability, T/C [17]: 3.46% | viability, T/C [18]: 5.63% | viability, T/C [19]: 58.1% | viability, T/C [20]: 59.4% | viability, T/C [21]: 46% | viability, T/C [22]: 34.6% | viability, T/C [23]: 4.74% | viability, T/C [24]: 8.02% | viability, T/C [25]: 64.6% | viability, T/C [26]: 50.3% | viability, T/C [27]: 41.3% | viability, T/C [28]: 28.1% | viability, T/C [29]: 4.08% | viability, T/C [30]: 0.99% | viability, T/C [31]: 49.8% | viability, T/C [32]: 53.3% | viability, T/C [33]: 35.8% | viability, T/C [34]: 23.8% | viability, T/C [35]: 3.27% | viability, T/C [36]: 0.11% | viability, T/C [37]: 57.1% | viability, T/C [38]: 38.4% | viability, T/C [39]: 29.6% | viability, T/C [40]: 22.6% | viability, T/C [41]: 2.77% | viability, T/C [42]: 0.3%

CC(C)CC(NC(=O)C(Cc1ccccc1)NC(=O)c1cnccn1)B(O)O (stereo not drawn)
viability, T/C (compound 0.000949 µM): 26.8% and 12.1% | viability, T/C (compound 0.003 µM): 0.63% and 0.17% | viability, T/C (compound 0.00949 µM): 0.23% and 0.71% | viability, T/C (compound 0.03 µM): 0.23% and 2.41% | viability, T/C (compound 0.0949 µM): 0.31% and 0.16% | viability, T/C (compound 0.3 µM): 2.09% and 0.42% | IC50 (curve of compound): < 0.949 nM

Nc1ccn(C2OC(CO)C(O)C2(F)F)c(=O)n1 (stereo not drawn)
viability, T/C (compound 0.0316 µM): 14.4% and 13.7% | viability, T/C (compound 0.1 µM): 13.7% and 12.6% | viability, T/C (compound 0.316 µM): 15.7% and 16.1% | viability, T/C (compound 1 µM): 12.8% and 13.2% | viability, T/C (compound 3.16 µM): 16.9% and 14.6% | viability, T/C (compound 10 µM): 13.1% and 14.5% | IC50 (curve of compound): < 31.6 nM

O=c1[nH]cc(F)c(=O)[nH]1 + CN1CCN(c2cc(C(=O)Nc3cc4cc(-c5cnn(C)c5)ccc4cn3)ccn2)CC1
IC50 [1]: 7520 nM | IC50 [2]: 4680 nM | IC50 [3]: < 31.6 nM | IC50 [4]: < 31.6 nM | IC50 [5]: < 31.6 nM | IC50 [6]: < 31.6 nM | viability, T/C [7]: 106% | viability, T/C [8]: 104% | viability, T/C [9]: 96.2% | viability, T/C [10]: 113% | viability, T/C [11]: 74.2% | viability, T/C [12]: 42% | viability, T/C [13]: 99.3% | viability, T/C [14]: 77.6% | viability, T/C [15]: 83.7% | viability, T/C [16]: 84.6% | viability, T/C [17]: 57.8% | viability, T/C [18]: 34.9% | viability, T/C [19]: 17.3% | viability, T/C [20]: 21.2% | viability, T/C [21]: 21.1% | viability, T/C [22]: 20.9% | viability, T/C [23]: 20.4% | viability, T/C [24]: 16.1% | viability, T/C [25]: 0.17% | viability, T/C [26]: 1.7% | viability, T/C [27]: 0.17% | viability, T/C [28]: 1.14% | viability, T/C [29]: 3.07% | viability, T/C [30]: 0.39% | viability, T/C [31]: 0.09% | viability, T/C [32]: 3.26% | viability, T/C [33]: 2.64% | viability, T/C [34]: 0.08% | viability, T/C [35]: 3.66% | viability, T/C [36]: 5.79% | viability, T/C [37]: 0.09% | viability, T/C [38]: 1.51% | viability, T/C [39]: 0.76% | viability, T/C [40]: 2.73% | viability, T/C [41]: 1.68% | viability, T/C [42]: 3.54%
